Measured values taken from PMC10542788, “Discovery of a cystathionine γ-lyase (CSE) selective inhibitor targeting active-site pyridoxal 5′-phosphate (PLP) via Schiff base formation” (Scientific Reports, 2023).
“Also recorded” adds a separate entry of the source.

What was measured:
COS7 cells = assay: CCK-8 cell viability assay; type: cell-based; conditions: 27 h, 37 °C
Method: We next examined the suitability of 1 for live-cell experiments. First, we performed CCK-8 assay (Dojindo) to examine its cytotoxicity. COS7 cells were incubated with various concentrations of 1 for 27 h at 37 °C under 5% CO2 and the cell viability was assessed. […] We then examined whether 1 can inhibit the enzymatic activity of hCSE in living cells by employing an indirect approach (Supplementary Fig. S12). HEK293T cells expressing hCSE were incubated with 0–1 mM 1 for 30 min, then washed twice with phosphate-buffered saline (PBS), and lysed in RIPA buffer (50 mM Tris–HCl buffer (pH 7.6), 150 mM NaCl, 1% Nonidet P40 Substitute, 0.5% sodium deoxycholate, protease inhibitor cocktail, 0.1% SDS). The inhibitory activity of 1 was evaluated by fluorescence detection after adding 1.5 mM cysteine, 100 μM PLP and 1 μM HSip-1 to these cell lysates.
We performed CCK-8 (Cell Counting Kit-8) assay (Dojindo) to examine cell viability. […] This absorbance is proportional to the number of living cells. […] The absorbance at 450 nm was measured with a microplate reader (EnVision, Perkin Elmer).
Supplementary Figure S11. […] COS7 cells were incubated in DMEM (Dulbecco’s modified Eagle’s medium) containing 1 (1, 3, 10, 30 and 100 µM) for […] and the cell viability was measured using CCK-8 reagent. […]

rCSE [1] = molecular target: T1, rCSE (Rattus norvegicus, UniProt P18757); assay: rCSE inhibition, cysteine persulfide (sulfane sulfur) production from cystine detected with SSP4; type: biochemical; parameters: His-tag (C); made in house; host or cells: E. coli BL21; conditions: cystine as substrate, SSP4 probe, mean ± S.E.
T1 sequence (P18757 whole entry): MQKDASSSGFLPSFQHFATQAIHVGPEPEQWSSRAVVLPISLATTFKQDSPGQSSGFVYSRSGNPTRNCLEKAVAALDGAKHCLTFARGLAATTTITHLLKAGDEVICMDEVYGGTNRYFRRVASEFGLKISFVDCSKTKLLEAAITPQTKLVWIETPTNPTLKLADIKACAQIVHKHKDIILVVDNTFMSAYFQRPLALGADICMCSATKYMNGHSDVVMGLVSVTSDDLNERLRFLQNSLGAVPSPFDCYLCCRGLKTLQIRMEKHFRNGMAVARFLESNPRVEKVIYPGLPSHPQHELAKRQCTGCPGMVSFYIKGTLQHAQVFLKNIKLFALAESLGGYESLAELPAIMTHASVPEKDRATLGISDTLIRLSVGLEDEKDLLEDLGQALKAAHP
Method: We further examined whether or not 1 can inhibit the production of cysteine persulfide from cystine by CSE (Supplementary Fig. S5)[10], using a commercially available sulfane sulfur-detecting probe, SSP4.
10 µL of 0.5 mM cystine solution in 30 mM HEPES (pH 7.4) was added to 10 µL of solution containing 50 µg/mL rCSE, 100 µM PLP, 1 µM SSP4 (Dojindo), 0.005% tween 20 and various concentrations of the inhibitor (0.5% DMSO as a cosolvent). The mixture was incubated at 37 °C for 60 min and the fluorescence intensity of SSP4 was measured with a microplate reader.

rCSE [2] = molecular target: T1, rCSE; assay: rCSE inhibition, H2S detection by gas chromatography; type: biochemical; parameters: His-tag (C); made in house; host or cells: E. coli BL21; conditions: 1.5 mM cysteine, 100 μM PLP, mean ± S.E., read-out: IC50, inhibition of H2S production by rCSE
Method: Next, in order to further confirm the CSE-inhibitory ability of 1, we employed a gas chromatographic method. A mixture of 30 μg/mL rCSE, 100 μM PLP and 1.5 mM cysteine in 30 mM HEPES buffer (pH 7.4) with or without 1 or PAG was incubated in a sealed glass vial, and the air containing enzymatically produced H2S in the glass vial was analyzed by gas chromatography.
Supplementary Figure S4. (a) H2S production by rCSE in the presence of various concentrations of 1 was measured by gas chromatography. A solution of 30 μg/mL rCSE, 100 μM PLP and 1.5 mM cysteine in 30 mM HEPES buffer (pH 7.4) was incubated at r.t. for 60 min. Error bars represent ±S.D. (n = 4). (b) Inhibitory activity of 1 (mean ± S.E.). H2S was detected by gas chromatography. Error bars represent ± S.D. (n = 4).

rCSE [3] = molecular target: T1, rCSE; assay: SPR measurement of binding between rCSE and 1; parameters: made in house; host or cells: E. coli
Method: Moreover, we performed surface plasmon resonance (SPR) assay to investigate the binding kinetics between rCSE and 1. rCSE was immobilized on a sensor chip of an SPR sensor, and various concentrations (6.25, 12.5, 25 and 50 µM) of 1 were flowed over it. The sensor chip was flushed with buffer solution not containing 1 before each concentration change of 1. […] In SPR binding studies between small molecule ligands and proteins, the washing process often markedly decreases the SPR signal.
The interaction between rCSE and oxamic hydrazide was analyzed using a Biacore T200 SPR instrument (Cytiva). A CM7 Biacore sensor chip (Cytiva) was used to immobilize rCSE at approximately 35,000 RU after activation with N-hydroxysuccinimide/N-ethyl-N′-(3-dimethylaminopropyl) carbodiimide hydrochloride. Acetate buffer (pH 5.5) was used to dilute rCSE. The activated surface of the sensor was blocked with 1 M ethanolamine. The interaction between rCSE and oxamic hydrazide was measured by injecting increasing concentrations of oxamic hydrazide into the sensor chip. The interaction was measured in 20 mM HEPES (pH 7.4) containing 150 mM NaCl, 0.5 mM TCEP, 100 µM PLP, 0.005% (v/v) Tween-20 and 1% (v/v) DMSO as a cosolvent.

NNC(=O)C(N)=O [Compound 1, oxamic hydrazide]
cytotoxicity (cell viability) (COS7 cells): No cytotoxicity was observed below 100 µM
IC50 (rCSE [1]): 33 ± 3 µM
IC50 (rCSE [2]): 23 ± 6 µM
binding to rCSE (SPR) (rCSE [3]; 6.25, 12.5, 25 and 50 µM): increased concentration-dependently
dissociation from rCSE during washing (SPR) (rCSE [3]; washing with buffer not containing 1): little dissociation occurs; also recorded: no dissociation
